Experimental data: patent US10315992B2, “Tetracyline compounds” (Tetraphase Pharmaceuticals, Inc., priority 2012, dated 2019)
In brackets after ≈: the same amount, converted by molar mass. Where two headings read alike, the source gives them in different places.

Assays:
[1] = test system: Staphylococcus aureus SA100 (ATCC 13709, MSSA, Smith strain); assay: MIC assay, SA100; format: cell-based; settings: read-out: MIC SA 100 13709
[2] = test system: Staphylococcus aureus SA191 (HA-MRSA, tetracycline-resistant); assay: MIC assay, SA191; format: cell-based; settings: MRSA, read-out: MIC SA 191
[3] = test system: Staphylococcus aureus SA161 (HA-MRSA, tet(M)); assay: MIC assay, SA161; format: cell-based; settings: Staphylococcus aureus, MRSA
[4] = test system: Staphylococcus aureus SA158 (tetracycline-resistant tet(K)); assay: MIC assay, SA158; format: cell-based
[5] = test system: Enterococcus faecalis EF103 (ATCC 29212); assay: MIC assay, EF103; format: cell-based; settings: ATCC29212, read-out: MIC EF 103 29212
[6] = test system: Enterococcus faecalis EF159 (tet(M)); assay: MIC assay, EF159; format: cell-based
[7] = test system: Enterococcus faecalis EF327 (wound isolate, tet(M)); assay: MIC assay, EF327; format: cell-based
[8] = test system: Enterococcus faecium EF404 (blood isolate, tet(M)); assay: MIC assay, EF404; format: cell-based
[9] = test system: Streptococcus pneumoniae SP160 (tet(M)); assay: MIC assay, SP160; format: cell-based
[10] = test system: Haemophilus influenzae HI262 (tetracycline-resistant, ampicillin-resistant); assay: MIC assay, HI262; format: cell-based; settings: read-out: MIC HI 262 33929
[11] = test system: Moraxella catarrhalis MC205 (ATCC 8176); assay: MIC assay, MC205; format: cell-based; settings: ATCC8176, read-out: MIC MC 205 8176
[12] = test system: Escherichia coli EC107 (ATCC 25922); assay: MIC assay, EC107; format: cell-based
[13] = test system: Escherichia coli EC155 (tet(A)); assay: MIC assay, EC155; format: cell-based; settings: Escherichia coli, read-out: MIC EC 155 tetA
[14] = test system: Enterobacter cloacae EC108 (ATCC 13047); assay: MIC assay, EC108; format: cell-based; settings: ATCC13047, read-out: MIC ECI 108 13047
[15] = test system: Enterobacter cloacae EC603 (urine isolate); assay: MIC assay, EC603; format: cell-based
[16] = test system: Proteus mirabilis PM112 (ATCC 35659); assay: MIC assay, PM112; format: cell-based; settings: ATCC35659, read-out: MIC PM 112 35659
[17] = test system: Proteus mirabilis PM385 (urine ESBL+ isolate); assay: MIC assay, PM385; format: cell-based
[18] = test system: Pseudomonas aeruginosa PA673 (2009 urine isolate); assay: MIC assay, PA673; format: cell-based
[19] = test system: Acinetobacter baumannii AB250 (cystic fibrosis isolate, MDR); assay: MIC assay, AB250; format: cell-based
[20] = test system: Stenotrophomonas maltophilia SM256 (cystic fibrosis isolate, MDR); assay: MIC assay, SM256; format: cell-based
EC 880 ipxC = assay: MIC assay, EC880; format: cell-based
Text: (§1) Minimum Inhibitory Concentration (MIC) Assay
(§2) The assays were run as follows.

EC 882 imp = assay: MIC assay, EC882; format: cell-based
Text: as §1, §2

[21] = test system: Klebsiella pneumoniae KP457 (2009 ESBL+, CTX-M, OXA)
PA 884 35151 = assay: MIC assay, PA884; settings: Pseudomonas aeruginosa, read-out: MIC PA 884 351 51
Method: (§3) MICs were determined according to the Clinical and Laboratory Standards Institute (CLSI) guidances (e.g., CLSI. Performance standards for antimicrobial susceptibility testing; nineteenth information supplement. CLSI document M100-S19, CLSI, 940 West Valley Road, Suite 1400, Wayne, Pa. 19087-1898, USA, 2009). Briefly, frozen bacterial strains were thawed and subcultured onto Mueller Hinton Broth (MHB) or other appropriate media (Streptococcus requires blood and Haemophilus requires hemin and NAD). Following incubation overnight, the strains were subcultured onto Mueller Hinton Agar and again incubated overnight. […] Isolated colonies were selected to prepare a starting inoculum equivalent to a 0.5 McFarland standard. […] Test compounds were prepared by dilution in sterile water to a final concentration of 5.128 mg/mL. Antibiotics (stored frozen, thawed and used within 3 hours of thawing) and compounds were further diluted to the desired working concentrations.
(§4) The assays were run as follows. Fifty μL of MHB was added to wells 2-12 of a 96-well plate. One hundred μL of appropriately diluted antibiotics was added to well 1. Fifty μL of antibiotics was removed from well 1 and added to well 2 and the contents of well 2 mixed by pipetting up and down five times. Fifty μL of the mixture in well 2 was removed and added to well 3 and mixed as above. Serial dilutions were continued in the same manner through well 12. Fifty μL was removed from well 12 so that all contained 50 μL. Fifty μL of the working inoculum was then added to all test wells. A growth control well was prepared by adding 50 μL of working inoculum and 50 μL of MHB to an empty well. The plates were then incubated at 37° C. overnight, removed from the incubator and each well was read on a plate reading mirror. The lowest concentration (MIC) of test compound that inhibited the growth of the bacteria was recorded.

PA 689 = assay: MIC assay, PA689; settings: Pseudomonas aeruginosa, read-out: MIC PA 689
Method: as §3, §4

## CN(C)[C@@H]1C(O)=C(C(N)=O)C(=O)[C@@]2(O)C(O)=C3C(=O)c4c(O)cccc4C[C@H]3C[C@@H]12 [Sancycline, sancycline]
[1]
  MIC: 1 µg/mL (≈ 2.41 µM)
[2]
  MIC: 8 µg/mL (≈ 19.3 µM)
[3]; read-out: MIC SA 161 MRSAtetM
  MIC: 2 µg/mL (≈ 4.83 µM)
[3]; read-out: MIC SA 161 tet M
  MIC: 2 µg/mL (≈ 4.83 µM)
[3]; read-out: MIC SA 161 tetM
  MIC: 2 µg/mL (≈ 4.83 µM)
[4]; read-out: MIC SA 158 tetK, S. aureus tet(K), Table 4
  MIC: 4 µg/mL (≈ 9.65 µM)
[4]; read-out: MIC SA 158 tetK, S. aureus tet(K), Table 5
  MIC: 4 µg/mL (≈ 9.65 µM)
[4]; read-out: MIC SA 158 tetK, S. aureus tet(K), Table 6
  MIC: 4 µg/mL (≈ 9.65 µM)
[4]; read-out: MIC SA 158 tetK, S. aureus tet(K), Table 7
  MIC: 4 µg/mL (≈ 9.65 µM)
[4]; read-out: MIC SA 158 tetK, control compounds
  MIC: 4 µg/mL (≈ 9.65 µM)
[4]; read-out: MIC SA 158 tetK, control compounds, numeric
  MIC: 4 µg/mL (≈ 9.65 µM)
[5]
  MIC: 8 µg/mL (≈ 19.3 µM)
[6]; read-out: MIC EF 159 tetM, E. faecalis tet(M), Table 4
  MIC: 8 µg/mL (≈ 19.3 µM)
[6]; read-out: MIC EF 159 tetM, E. faecalis tet(M), Table 5
  MIC: 8 µg/mL (≈ 19.3 µM)
[7]; read-out: MIC EF 327 tet M
  MIC: 4 µg/mL (≈ 9.65 µM)
[7]; read-out: MIC EF 327 tetM
  MIC: 4 µg/mL (≈ 9.65 µM)
[8]; read-out: MIC EF 404 tet M
  MIC: 4 µg/mL (≈ 9.65 µM)
[8]; read-out: MIC EF 404 tetM
  MIC: 4 µg/mL (≈ 9.65 µM)
[9]; read-out: MIC SP 160 tet M, S. pneumoniae tet(M), Table 6
  MIC: 8 µg/mL (≈ 19.3 µM)
[9]; read-out: MIC SP 160 tetM, S. pneumoniae tet(M), Table 4
  MIC: 8 µg/mL (≈ 19.3 µM)
[9]; read-out: MIC SP 160 tetM, S. pneumoniae tet(M), Table 5
  MIC: 8 µg/mL (≈ 19.3 µM)
[9]; read-out: MIC SP 160 tetM, S. pneumoniae tet(M), Table 7
  MIC: 8 µg/mL (≈ 19.3 µM)
[9]; read-out: MIC SP 160 tetM, control compounds
  MIC: 8 µg/mL (≈ 19.3 µM)
[9]; read-out: MIC SP 160 tetM, control compounds, numeric
  MIC: 8 µg/mL (≈ 19.3 µM)
[10]
  MIC: 0.5 µg/mL (≈ 1.21 µM)
[11]
  MIC: 0.13 µg/mL (≈ 0.314 µM)
[12]; ATCC25922, read-out: MIC EC 07 25922, E. coli ATCC 25922, Table 7
  MIC: 8 µg/mL (≈ 19.3 µM)
[12]; ATCC25922, read-out: MIC EC 107 259 22, E. coli ATCC 25922, Table 6
  MIC: 8 µg/mL (≈ 19.3 µM)
[12]; ATCC25922, read-out: MIC EC 107 25922, E. coli ATCC 25922, Table 4
  MIC: 8 µg/mL (≈ 19.3 µM)
[12]; ATCC25922, read-out: MIC EC 107 25922, E. coli ATCC 25922, Table 5
  MIC: 8 µg/mL (≈ 19.3 µM)
[12]; ATCC25922, read-out: MIC EC 107 25922, control compounds
  MIC: 8 µg/mL (≈ 19.3 µM)
[12]; ATCC25922, read-out: MIC EC 107 25922, control compounds, numeric
  MIC: 8 µg/mL (≈ 19.3 µM)
[13]
  MIC: 32 µg/mL (≈ 77.2 µM)
[14]
  MIC: 8 µg/mL (≈ 19.3 µM)
[15]
  MIC: 32 µg/mL (≈ 77.2 µM)
[15]; read-out: MIC EC 603 tetA
  MIC: 32 µg/mL (≈ 77.2 µM)
[16]
  MIC: 4 µg/mL (≈ 9.65 µM)
[17]; read-out: MIC PM 385
  MIC: 8 µg/mL (≈ 19.3 µM)
[17]; read-out: MIC PM 385 CTX-M15
  MIC: 8 µg/mL (≈ 19.3 µM)
[18]
  MIC: 32 µg/mL (≈ 77.2 µM)
[18]; read-out: MIC PA 673
  MIC: 33 µg/mL (≈ 79.6 µM)
[19]
  MIC: 16 µg/mL (≈ 38.6 µM)
[19]; read-out: MIC AB 250
  MIC: 16 µg/mL (≈ 38.6 µM)
[20]
  MIC: 1 µg/mL (≈ 2.41 µM)
[20]; read-out: MIC SM 256
  MIC: 1 µg/mL (≈ 2.41 µM)
EC 880 ipxC; Table 7, read-out: MIC EC 880 ipxC
  MIC: 0.25 µg/mL (≈ 0.603 µM)
EC 880 ipxC; read-out: MIC EC 880 ipx C
  MIC: 0.2 µg/mL (≈ 0.483 µM)
EC 882 imp; Table 7, read-out: MIC EC 882 imp
  MIC: 0.25 µg/mL (≈ 0.603 µM)
EC 882 imp; read-out: MIC EC 882 imp, Table 6
  MIC: 0.25 µg/mL (≈ 0.603 µM)
[21]
  MIC KP 457: 8 µg/mL (≈ 19.3 µM)
  MIC KP 457 CTX- M-15: 8 µg/mL (≈ 19.3 µM)
  MIC KP 457 CTX-M-15: 8 µg/mL (≈ 19.3 µM)
PA 884 35151
  MIC: 4 µg/mL (≈ 9.65 µM)
PA 689
  MIC: 16 µg/mL (≈ 38.6 µM)
